Test results taken from patent US6579899B1, “Composition for treatment of stress” (Massachusetts Institute of Technology, priority 1998, dated 2003).
Where a name gives a salt, the structure may show the parent alone.

Key:
Assay type in all cases: in vivo, human
obese, stressed patients [1] = assay: CES-D test of current levels of emotional distress in patients; conditions: for CES-D Mood Score: over the treatment period
Source text: (§1) A subgroup of obese individuals is identified, which individuals describe themselves as being unable to control their eating and who attempt to continue on a weight-reducing diet when experiencing emotional distress. […]
(§2) Objective measurements of emotional distress are made in some patients using the CES-D (Center for […] Depression Form) test, which measures current levels of emotional distress (Radloff, et al., The CES-D Scale: A Self Report Depression Scale for Research in the General Population Applied Psychological Measurement 1: 385-401, 1977); and the POMS (Profile of Mood States test, that assesses tension, depression, anger and confusion (McNair, et al., Profile of Mood States Manual;San Diego: Educational and Industrial Testing Service, 1971); both of these references are hereby incorporated by reference in their entirety. These tests are also given monthly during the treatment period. At the same time, patients also complete questionnaires that ask the patients to rate their appetite and hunger, and also to rate their tendency to eat in response to a variety of emotional and stressful triggers. The patients are also weighed monthly.

obese, stressed patients [2] = assay: questionnaire rating tendency to eat in response to emotional and stressful triggers; set-up: Emotional Triggers: scale not given here; conditions: for emotional triggers score: over the treatment period
Source text: as §1, §2

[3] = test system: patient experiencing stress induced symptoms; assay: treatment of patients with stress induced symptoms with serotonin precursors (Examples 16-23)
[4] = body weight in four month weight loss program
Source text: as §1, §2

obese, stressed patients [5] = assay: questionnaire rating appetite and hunger; set-up: Appetite and Cravings: scale not given here
Source text: as §1, §2

[6] = Example 19, food based preparation, in conjunction with a serotonin agonist
[7] = Example 23, food based preparation
[8] = Example 20, in conjunction with a stimulant of serotonin synthesis
[9] = Example 22, functional food, in conjunction with a stimulant of serotonin synthesis

Q: With `N[C@@H](Cc1c[nH]c2ccc(O)cc12)C(=O)O` [L-5-hydroxytryptophan] as the compound, how does the “CES-D Mood Score” value (obese, stressed patients [1]; [6]) read?
A: drops

Q: And the “CES-D Mood Score” value (obese, stressed patients [1]; [7])?
A: drops

Q: And the “emotional triggers score” value (obese, stressed patients [2]; [6])?
A: drops

Q: And the “emotional triggers score” value (obese, stressed patients [2]; [7])?
A: drops

Q: And the “stress induced depression” value [3, 6]?
A: reduced depression

Q: What about the “stress” value [3, 8] of the same compound?
A: decreased stress

Q: What about the “stress induced high blood pressure” value [3, 8] of the same compound?
A: lower blood pressure

Q: What about the “stress induced inability to concentrate” value [3, 7] of the same compound?
A: improved concentration

Q: Which results are given for `CC(CN(C)C)CN1c2ccccc2CCc2ccccc21` (stereo not drawn) [trimipramine maleate]?
A: Mood Scores CES-D (obese, stressed patients [1]; patient eight, 75 then 100 mg/day, Month 1, baseline 25): 22; Mood Scores CES-D (obese, stressed patients [1]; patient eight, 75 then 100 mg/day, Month 2, baseline 25): 20; Mood Scores CES-D (obese, stressed patients [1]; patient eight, 75 then 100 mg/day, Month 3, baseline 25): 15; Mood Scores CES-D (obese, stressed patients [1]; patient eight, 75 then 100 mg/day, Month 4, baseline 25): 13; Emotional Triggers (obese, stressed patients [2]; patient eight, 75 then 100 mg/day, Month 1, baseline 14): 8; Emotional Triggers (obese, stressed patients [2]; patient eight, 75 then 100 mg/day, Month 2, baseline 14): 13; Emotional Triggers (obese, stressed patients [2]; patient eight, 75 then 100 mg/day, Month 3, baseline 14): 6; Emotional Triggers (obese, stressed patients [2]; patient eight, 75 then 100 mg/day, Month 4, baseline 14): 3; weight at the end of 4 months ([4]; patient eight, 75 then 100 mg/day, starting weight 81.8 kg): 71.8 kg; weight at the end of 4 months ([4]; patient eight, 75 then 100 mg/day, starting weight 180 pounds): 158 pounds; Appetite and Cravings (obese, stressed patients [5]; patient eight, 75 then 100 mg/day, Month 1, baseline 11): 9; Appetite and Cravings (obese, stressed patients [5]; patient eight, 75 then 100 mg/day, Month 2, baseline 11): 8; Appetite and Cravings (obese, stressed patients [5]; patient eight, 75 then 100 mg/day, Month 3, baseline 11): 13; Appetite and Cravings (obese, stressed patients [5]; patient eight, 75 then 100 mg/day, Month 4, baseline 11): 6

Q: With `CNCCC(Oc1ccc(C(F)(F)F)cc1)c1ccccc1` (stereo not drawn) [fluoxetine hydrochloride] as the compound, how does the “Mood Scores CES-D” value (obese, stressed patients [1]; patient four, 20 rising to 80 mg/day, Month 1, baseline 15) read?
A: 10

Q: And the “Mood Scores CES-D” value (obese, stressed patients [1]; patient four, 20 rising to 80 mg/day, Month 2, baseline 15)?
A: 2

Q: What about the “Mood Scores CES-D” value (obese, stressed patients [1]; patient four, 20 rising to 80 mg/day, Month 3, baseline 15) of the same compound?
A: 6

Q: And the “Mood Scores CES-D” value (obese, stressed patients [1]; patient four, 20 rising to 80 mg/day, Month 4, baseline 15)?
A: 7

Q: And the “Emotional Triggers” value (obese, stressed patients [2]; patient four, 20 rising to 80 mg/day, Month 1, baseline 31)?
A: 22

Q: And the “Emotional Triggers” value (obese, stressed patients [2]; patient four, 20 rising to 80 mg/day, Month 2, baseline 31)?
A: 13

Q: What about the “Emotional Triggers” value (obese, stressed patients [2]; patient four, 20 rising to 80 mg/day, Month 3, baseline 31) of the same compound?
A: 10

Q: What about the “Emotional Triggers” value (obese, stressed patients [2]; patient four, 20 rising to 80 mg/day, Month 4, baseline 31) of the same compound?
A: 12

Q: And the “weight at the end of 4 months” value ([4]; patient four, 20 rising to 80 mg/day, starting weight 83.2 kg)?
A: 78.2 kg

Q: And the “weight at the end of 4 months” value ([4]; patient four, 20 rising to 80 mg/day, starting weight 183 pounds)?
A: 172 pounds

Q: And the “Appetite and Cravings” value (obese, stressed patients [5]; patient four, 20 rising to 80 mg/day, Month 1, baseline 17)?
A: 6

Q: What about the “Appetite and Cravings” value (obese, stressed patients [5]; patient four, 20 rising to 80 mg/day, Month 2, baseline 17) of the same compound?
A: 9

Q: What about the “Appetite and Cravings” value (obese, stressed patients [5]; patient four, 20 rising to 80 mg/day, Month 3, baseline 17) of the same compound?
A: 3

Q: And the “Appetite and Cravings” value (obese, stressed patients [5]; patient four, 20 rising to 80 mg/day, Month 4, baseline 17)?
A: 4

Q: Which “Mood Scores CES-D” value (obese, stressed patients [1]; patient nine, 100 mg/day in divided doses, Month 4, baseline 9) does the source give for `CN[C@H]1CC[C@@H](c2ccc(Cl)c(Cl)c2)c2ccccc21` [sertraline hydrochloride] here?
A: 1

Q: And the “Mood Scores CES-D” value (obese, stressed patients [1]; patient two, 50 rising to 200 mg/day, Month 1, baseline 20)?
A: 16

Q: And the “Mood Scores CES-D” value (obese, stressed patients [1]; patient two, 50 rising to 200 mg/day, Month 2, baseline 20)?
A: 16

Q: What about the “Mood Scores CES-D” value (obese, stressed patients [1]; patient two, 50 rising to 200 mg/day, Month 3, baseline 20) of the same compound?
A: 10

Q: And the “Mood Scores CES-D” value (obese, stressed patients [1]; patient two, 50 rising to 200 mg/day, Month 4, baseline 20)?
A: 12

Q: What about the “Emotional Triggers” value (obese, stressed patients [2]; patient nine, 100 mg/day in divided doses, Month 4, baseline 12) of the same compound?
A: 3

Q: And the “Emotional Triggers” value (obese, stressed patients [2]; patient two, 50 rising to 200 mg/day, Month 1, baseline 22)?
A: 12

Q: What about the “Emotional Triggers” value (obese, stressed patients [2]; patient two, 50 rising to 200 mg/day, Month 2, baseline 22) of the same compound?
A: 13

Q: What about the “Emotional Triggers” value (obese, stressed patients [2]; patient two, 50 rising to 200 mg/day, Month 3, baseline 22) of the same compound?
A: 5

Q: What about the “Emotional Triggers” value (obese, stressed patients [2]; patient two, 50 rising to 200 mg/day, Month 4, baseline 22) of the same compound?
A: 3

Q: What about the “weight at the end of 4 months” value ([4]; patient nine, 100 mg/day in divided doses, starting weight 92.3 kg) of the same compound?
A: 72.7 kg

Q: What about the “weight at the end of 4 months” value ([4]; patient nine, 100 mg/day in divided doses, starting weight 203 pounds) of the same compound?
A: 160 pounds

Q: And the “weight at the end of 4 months” value ([4]; patient two, 50 rising to 200 mg/day, starting weight 78.6 kg)?
A: 72.7 kg

Q: And the “weight at the end of 4 months” value ([4]; patient two, 50 rising to 200 mg/day, starting weight 173 pounds)?
A: 160 pounds

Q: What about the “Appetite and Cravings” value (obese, stressed patients [5]; patient two, 50 rising to 200 mg/day, Month 1, baseline 15) of the same compound?
A: 12

Q: What about the “Appetite and Cravings” value (obese, stressed patients [5]; patient two, 50 rising to 200 mg/day, Month 2, baseline 15) of the same compound?
A: 5

Q: What about the “Appetite and Cravings” value (obese, stressed patients [5]; patient two, 50 rising to 200 mg/day, Month 3, baseline 15) of the same compound?
A: 3

Q: What about the “Appetite and Cravings” value (obese, stressed patients [5]; patient two, 50 rising to 200 mg/day, Month 4, baseline 15) of the same compound?
A: 1

Q: What does the source list for `N[C@@H](Cc1c[nH]c2ccccc12)C(=O)O` [L-tryptophan]?
A: stress induced fatigue ([3]; Example 18, functional food, in conjunction with a stimulant of serotonin synthesis): reduced fatigue; stress as indicated by CES-D Mood Score and emotional triggers score [3, 9]: reduced stress; stress induced neck and back pain [3, 9]: reduced back and neck pain
